Assay results as given in US20080312268A1, “Substituted tricyclic piperidone compounds” (Gruenenthal GMBH, priority 2005, published 2008).
Where a name gives a salt, the structure may show the parent alone.

Columns and labels:
NA re-uptake = target: T1, NA re-uptake (Rattus norvegicus, UniProt Q63380); assay: Measurement of noradrenalin re-uptake in rat brain synaptosomes; format: biochemical; settings: synaptosomes (P2 fraction) from hypothalamus of male rat brains
T1 construct: Synaptosomes from rat brain areas were freshly isolated for the purposes of these in-vitro studies; from tissue; host or cells: rat brain synaptosomes (P2 fraction), hypothalamus of male rats
T1 sequence (Q63380 1-617): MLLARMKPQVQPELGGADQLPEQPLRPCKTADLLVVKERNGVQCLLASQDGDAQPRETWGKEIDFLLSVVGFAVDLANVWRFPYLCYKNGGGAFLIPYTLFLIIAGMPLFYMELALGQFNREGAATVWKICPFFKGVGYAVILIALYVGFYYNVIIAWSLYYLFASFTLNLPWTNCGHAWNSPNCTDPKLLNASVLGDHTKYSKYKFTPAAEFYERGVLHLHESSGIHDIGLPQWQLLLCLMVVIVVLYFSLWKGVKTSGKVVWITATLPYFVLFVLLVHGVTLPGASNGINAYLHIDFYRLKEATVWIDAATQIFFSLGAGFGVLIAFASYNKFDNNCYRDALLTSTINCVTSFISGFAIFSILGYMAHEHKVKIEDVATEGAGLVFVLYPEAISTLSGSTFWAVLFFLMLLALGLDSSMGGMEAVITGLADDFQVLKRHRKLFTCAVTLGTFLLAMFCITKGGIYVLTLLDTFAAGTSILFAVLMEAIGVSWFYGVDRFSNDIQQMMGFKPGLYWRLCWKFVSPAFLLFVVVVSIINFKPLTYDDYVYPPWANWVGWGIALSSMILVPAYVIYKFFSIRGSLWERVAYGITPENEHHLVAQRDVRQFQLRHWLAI
Description: Synaptosomes from rat brain areas were freshly isolated for the purposes of these in-vitro studies. In each case a “P2” fraction was used, which was prepared in accordance with the instructions given by Gray and Whittaker (E. G. Gray und V. P. Whittaker (1962) J. Anat. 76, 79-88). For NA uptake these vesicular particles were isolated from the hypothalamus of male rat brains.
(§1) A detailed description of the method can be found in the literature (M. Ch. Frink, H.-H. Hennies, W. Englberger, M. Haurand and B. Wilffert (1996) Arzneim.-Forsch./Drug Res. 46 (III), 11, 1029-1036).

5-HT re-uptake = target: T2, 5-HT re-uptake (Rattus norvegicus, UniProt P31652); assay: Measurement of serotonin re-uptake in rat brain synaptosomes; format: biochemical; settings: synaptosomes (P2 fraction) from medulla and pons region of male rat brains
T2 construct: Synaptosomes from rat brain areas were freshly isolated for the purposes of these in-vitro studies; from tissue; host or cells: rat brain synaptosomes (P2 fraction), medulla and pons of male rats
T2 sequence (P31652 whole entry): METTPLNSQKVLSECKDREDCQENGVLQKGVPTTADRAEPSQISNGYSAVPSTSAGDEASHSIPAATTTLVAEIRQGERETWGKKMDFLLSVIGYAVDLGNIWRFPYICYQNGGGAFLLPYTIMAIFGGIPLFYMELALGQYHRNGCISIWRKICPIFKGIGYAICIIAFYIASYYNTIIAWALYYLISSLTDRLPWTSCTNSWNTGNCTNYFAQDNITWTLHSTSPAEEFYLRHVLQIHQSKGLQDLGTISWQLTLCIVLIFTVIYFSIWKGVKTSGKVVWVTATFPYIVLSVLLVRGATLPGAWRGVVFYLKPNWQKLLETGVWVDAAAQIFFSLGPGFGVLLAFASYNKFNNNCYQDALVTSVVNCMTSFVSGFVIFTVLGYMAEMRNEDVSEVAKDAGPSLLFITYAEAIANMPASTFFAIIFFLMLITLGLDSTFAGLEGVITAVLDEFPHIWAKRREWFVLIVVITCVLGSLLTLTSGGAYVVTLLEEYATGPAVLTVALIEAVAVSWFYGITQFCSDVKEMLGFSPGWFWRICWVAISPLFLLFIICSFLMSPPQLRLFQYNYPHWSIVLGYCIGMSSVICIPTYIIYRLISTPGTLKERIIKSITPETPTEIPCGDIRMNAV
Description: Synaptosomes from rat brain areas were freshly isolated for the purposes of these in-vitro studies. In each case a “P2” fraction was used, which was prepared in accordance with the instructions given by Gray and Whittaker (E. G. Gray und V. P. Whittaker (1962) J. Anat. 76, 79-88). For 5HT uptake these vesicular particles were isolated from the medulla and pons region of male rat brains.
as §1

melting point [°C]	Compound	NA re-uptake [10 μm], % inhibition (NA re-uptake) [%]	5-HT re-uptake [10 μm], % inhibition (5-HT re-uptake) [%]
117 to 119	CCOC(=O)C12Cc3ccccc3C(CN(Cc3ccccc3)C1)C2=O (stereo not drawn)		
158 to 160	CCOC(=O)C12Cc3ccc(C#N)cc3C(CN(Cc3ccccc3)C1)C2=O (stereo not drawn)		
84 to 85	CCOC(=O)C12Cc3cc(OC)ccc3C(CN(Cc3ccccc3)C1)C2=O (stereo not drawn)		

More lines, now with the values behind:

Compound	melting point [°C]	NA re-uptake [10 μm], % inhibition (NA re-uptake) [%]	5-HT re-uptake [10 μm], % inhibition (5-HT re-uptake) [%]
CCOC(=O)C12Cc3ccccc3C(CN(C(=O)Nc3ccccc3)C1)C2=O (stereo not drawn)	199 to 203		
CCOC(=O)C12Cc3ccccc3C(CN(C)C1)C2=O (stereo not drawn) [Compound 9, Ethyl-N-methyl-11-oxo-1,3,4,6-tetrahydro-1,5-methano-3-benzazocine-5(2H)-carboxylate hydrochloride]		80	77
